Source: patent US7410974B2, “Halogenated Quinazolinyl nitrofurans as antibacterial agents” (Ulysses Pharmaceutical Products, Inc., priority 2003, dated 2008)
Values after ≈ are worked out from the molar mass of the structure shown. Like-named read-outs stand apart in the source and are kept apart here.

Legend:
[1] = system: B. catarrhalis ATCC 8176; test: Minimal Bactericidal Concentration (MBC); type: cell-based, Branhamella (Moraxella) catarrhalis; conditions: Moraxella catarrhalis, ATCC8176, 99.9% killing
Experimental: (§1) Minimal Bactericidal Concentration (MBC). After the microtiter plates were read for the determination of the MIC, a 10-μl sample of each clear well (at least 5 wells without visible growth) was applied onto TSA plates for viable counts determination.
(§2) Petri dishes were incubated at 35° C. for exactly 24 h and bacterial colonies were counted.

[2] = system: S. saprophyticus ATCC 15305; test: MIC broth microdilution (NCCLS); type: cell-based, Staphylococcus saprophyticus; conditions: Staphylococcus saprophyticus, ATCC15305; S. saprophyticus ATCC 15305; read-out: MIC
Experimental: (§3) Minimal Inhibitory Concentration (MIC) Determination. Bacteria (primary strain panel, TABLE 1). Susceptibility tests were performed following the recommendations from the National Committee for Clinical Standards (NCCLS). The MICs were determined by a broth microdilution technique using a final volume of 100 μl of cation-adjusted Mueller Hinton Broth (MHBCA) and a bacterial inoculum of 10^5-10^6 Colony Forming Units (CFU)/ml. The inocula were verified and precisely determined by applying 10-μl drops of 10-fold dilutions onto Triptic Soy Agar plates. The CFU were counted after an incubation of 24 h at 35° C. Any experiment showing an inoculum that was more or less than 10^5-10^6 CFU/ml was rejected. Control antibiotics and test compounds were prepared at a concentration equivalent to 2-fold the highest desired final concentration. Compounds were then diluted directly in the 96-well microtiter plates by serial 2-fold dilutions using a multichannel pipette. Microtiter plates were incubated during 24 h at 35° C. and growth was recorded by using a microtiterplate reader at 650 nm as well as by visual observation. The MIC was defined as the lowest concentration of compound yielding no visible growth. […] Fastidious bacteria. The medium used for Listeria monocytogenes, Neisseria meningitidis, and Campylobacter jejuni was MHBCA containing 2% laked horse blood. The medium used for Haemophilus influenzae and Branhamella (Moraxella) catarrhalis was HTM as recommended by the NCCLS. Cultures of these fastidious bacteria were incubated at 35° C. in a 5% CO2 atmosphere. […] The medium used for Bacteroides fragilis was Wilkins Chalgren broth and growth was allowed under an anaerobic atmosphere at 35° C. for 48 hours.

[3] = system: H. influenzae ATCC 49766; test: Minimal Bactericidal Concentration (MBC); type: cell-based; conditions: Haemophilus influenzae, ATCC49766, 99.9% killing
Experimental: as §1, §2

[4] = system: H. influenzae ATCC 49247; test: Minimal Bactericidal Concentration (MBC); type: cell-based; conditions: Haemophilus influenzae, ATCC49247, 99.9% killing
Experimental: as §1, §2

[5] = system: S. typhimurium ATCC14028; test: MIC broth microdilution (NCCLS); type: cell-based, Salmonella typhimurium; conditions: Salmonella enterica; S. typhimurium ATCC14028; read-out: MIC
Experimental: as §3

[6] = system: S. aureus ATCC 29213; test: MIC broth microdilution (NCCLS); type: cell-based, Staphylococcus aureus; conditions: Staphylococcus aureus, ATCC29213; S. aureus ATCC 29213; read-out: MIC
Experimental: as §3

[7] = system: Y. enterocolytica ATCC 23715; test: MIC broth microdilution (NCCLS); type: cell-based, Yersinia enterocolytica; conditions: Yersinia, ATCC23715, read-out: MIC
Experimental: as §3

[8] = system: S. aureus MRSA COL; test: MIC broth microdilution (NCCLS); type: cell-based, Staphylococcus aureus; conditions: Staphylococcus aureus, MRSA
Experimental: as §3, with “hours. […]” for “hours.”

[9] = system: E. faecium ATCC 35667; test: MIC broth microdilution (NCCLS); type: cell-based, Enterococcus faecium
Experimental: as §3

[10] = system: E. faecium VanA; test: MIC broth microdilution, antibiotic resistant strain panel; type: cell-based; conditions: Enterococcus faecium
Experimental: as §3
(§4) Finally, compounds were also tested against populations of various clinical strains (antibiotic resistant strain panel, TABLE 1).

[11] = system: S. epidermidis ATCC 12228; test: MIC broth microdilution (NCCLS); type: cell-based, Staphylococcus epidermidis; conditions: Staphylococcus epidermidis, ATCC12228; S. epidermidis ATCC 12228; read-out: MIC
Experimental: as §3

[12] = system: E. faecalis ATCC 29212; test: MIC broth microdilution (NCCLS); type: cell-based, Enterococcus faecalis; conditions: Enterococcus faecalis, ATCC29212; E. faecalis ATCC 29212; read-out: MIC
Experimental: as §3

[13] = system: E. coli ATCC 25922; test: MIC broth microdilution (NCCLS); type: cell-based, Escherichia coli; conditions: Escherichia coli, ATCC25922, E. coli ATCC 25922 (Reference); read-out: MIC
Experimental: as §3

[14] = system: A. baumannii ATCC 19606; test: MIC broth microdilution (NCCLS); type: cell-based, Acinetobacter baumannii; conditions: Acinetobacter baumannii, ATCC19606, read-out: MIC
Experimental: as §3

[15] = system: B. catarrhalis ATCC 8176; test: MIC broth microdilution (NCCLS), fastidious bacteria; type: cell-based, Branhamella (Moraxella) catarrhalis; conditions: Moraxella catarrhalis, ATCC8176, HTM, 5% CO2
Experimental: as §3

[16] = system: H. influenzae ATCC 49766; test: as above; type: cell-based; conditions: Haemophilus influenzae, ATCC49766, HTM, 5% CO2
Experimental: as §3

[17] = system: H. influenzae ATCC 49247; test: as above; type: cell-based; conditions: Haemophilus influenzae, ATCC49247, HTM, 5% CO2
Experimental: as §3

[18] = system: MRSA strain Sa224c; test: MIC broth microdilution, antibiotic resistant strain panel; type: cell-based, Staphylococcus aureus; conditions: Staphylococcus aureus; multi-resistant MRSA strain Sa224c; read-out: MIC
Experimental: as §3, §4

[19] = system: MRSA strain Sa211c; test: as above; type: cell-based, Staphylococcus aureus; conditions: Staphylococcus aureus; multi-resistant MRSA strain Sa211c; read-out: MIC
Experimental: as §3, §4

[20] = system: MRSA strain Sa228c; test: as above; type: cell-based, Staphylococcus aureus; conditions: Staphylococcus aureus; multi-resistant MRSA strain Sa228c; read-out: MIC
Experimental: as §3, §4

[21] = system: MRSA strain Sa249c; test: as above; type: cell-based, Staphylococcus aureus; conditions: Staphylococcus aureus; multi-resistant MRSA strain Sa249c; read-out: MIC
Experimental: as §3, §4

[22] = system: MRSA strain Sa220c; test: as above; type: cell-based, Staphylococcus aureus; conditions: Staphylococcus aureus; multi-resistant MRSA strain Sa220c; read-out: MIC
Experimental: as §3, §4

[23] = system: MRSA strain Sa212c; test: as above; type: cell-based, Staphylococcus aureus; conditions: Staphylococcus aureus; multi-resistant MRSA strain Sa212c; read-out: MIC
Experimental: as §3, §4

[24] = system: MRSA strain Sa248c; test: as above; type: cell-based, Staphylococcus aureus; conditions: Staphylococcus aureus; multi-resistant MRSA strain Sa248c; read-out: MIC
Experimental: as §3, §4

[25] = system: MRSA strain Sa253c; test: as above; type: cell-based, Staphylococcus aureus; conditions: Staphylococcus aureus; multi-resistant MRSA strain Sa253c; read-out: MIC
Experimental: as §3, §4

[26] = system: MRSA strain Sa234c; test: as above; type: cell-based, Staphylococcus aureus; conditions: Staphylococcus aureus; multi-resistant MRSA strain Sa234c; read-out: MIC
Experimental: as §3, §4

[27] = system: M. smegmatis ATCC 19420; test: MIC broth microdilution (NCCLS), fastidious bacteria; type: cell-based, Mycobacterium smegmatis; conditions: Mycolicibacterium smegmatis, ATCC19420, read after 48 hours
Experimental: as §3

[28] = system: L. monocytogenes ATCC 13932; test: as above; type: cell-based; conditions: Listeria monocytogenes, ATCC13932, MHBCA with 2% laked horse blood, 5% CO2
Experimental: as §3

[29] = Enterococcus faecium, ATCC35667, E. faecium ATCC 35667, read-out: MIC
[30] = multi-resistant E. faecium VanA, read-out: MIC
[31] = S. aureus MRSA COL, read-out: MIC

SMILES | MBC [1] | MIC [2] | MBC [3] | MBC [4] | MIC [5] | MIC [6] | MIC [7] | MIC [9, 29] | MIC [10, 30] | MIC [11] | MIC [12] | MIC [13] | MIC [14] | MIC [15] | MIC [16] | MIC [17] | MIC [8, 31] | MIC [27] | further results
CO/N=C(\C(=O)N[C@@H]1C(=O)N2C(C(=O)O)=C(COC(C)=O)CS[C@H]12)c1csc(N)n1 [Cefotaxime] | 0.06 µg/mL (≈ 0.132 µM) | 8 µg/mL (≈ 17.6 µM) | 0.008 µg/mL (≈ 0.0176 µM) | 0.12 µg/mL (≈ 0.263 µM) | > 2 µg/mL | 1 to 2 µg/mL (≈ 2.2 to 4.39 µM) | > 2 µg/mL | 16 µg/mL (≈ 35.1 µM) | > 128 µg/mL | 0.5 to 1 µg/mL (≈ 1.1 to 2.2 µM) | 2 to 8 µg/mL (≈ 4.39 to 17.6 µM) | 0.06 to 0.12 µg/mL (≈ 0.132 to 0.263 µM) | 16 µg/mL (≈ 35.1 µM) | 0.03 µg/mL (≈ 0.0659 µM) | 0.008 µg/mL (≈ 0.0176 µM) | 0.12 µg/mL (≈ 0.263 µM) |  |  | MIC [8]: 512 µg/mL (≈ 1120 µM)
CC[C@H]1OC(=O)[C@H](C)[C@@H](O[C@H]2C[C@@](C)(OC)[C@@H](O)[C@H](C)O2)[C@H](C)[C@@H](O[C@@H]2O[C@H](C)C[C@H](N(C)C)[C@H]2O)[C@](C)(O)C[C@@H](C)C(=O)[C@H](C)[C@@H](O)[C@]1(C)O [Erythromycin] | 0.12 µg/mL (≈ 0.164 µM) | 0.25 µg/mL (≈ 0.341 µM) | 16 µg/mL (≈ 21.8 µM) | 2 µg/mL (≈ 2.73 µM) |  | 0.5 µg/mL (≈ 0.681 µM) |  | 2 µg/mL (≈ 2.73 µM) |  | 0.5 µg/mL (≈ 0.681 µM) | 2 to 4 µg/mL (≈ 2.73 to 5.45 µM) | 64 µg/mL (≈ 87.2 µM) |  | 0.06 µg/mL (≈ 0.0818 µM) | 8 µg/mL (≈ 10.9 µM) | 2 µg/mL (≈ 2.73 µM) | 0.25 µg/mL (≈ 0.341 µM) |  | MIC [18]: > 32 µg/mL; MIC [19]: > 32 µg/mL; MIC [20]: > 32 µg/mL; MIC [21]: > 128 µg/mL; MIC [22]: 0.5 µg/mL (≈ 0.681 µM); MIC [23]: > 32 µg/mL; MIC [24]: > 128 µg/mL; MIC [25]: > 128 µg/mL; MIC [26]: > 32 µg/mL
C[C@@H](O)[C@H]1C(=O)N2C(C(=O)O)=C(S[C@@H]3CN[C@H](C(=O)N(C)C)C3)[C@H](C)[C@H]12 [Meropenem] | 0.008 µg/mL (≈ 0.0209 µM) | 0.25 µg/mL (≈ 0.652 µM) | 0.06 µg/mL (≈ 0.156 µM) | 0.06 µg/mL (≈ 0.156 µM) |  | 0.06 µg/mL (≈ 0.156 µM) | > 0.5 µg/mL | 16 µg/mL (≈ 41.7 µM) |  | 0.06 µg/mL (≈ 0.156 µM) | 2 to 4 µg/mL (≈ 5.22 to 10.4 µM) | 0.015 to 0.06 µg/mL (≈ 0.0391 to 0.156 µM) | 2 µg/mL (≈ 5.22 µM) | 0.002 µg/mL (≈ 0.00522 µM) | 0.03 µg/mL (≈ 0.0782 µM) | 0.06 µg/mL (≈ 0.156 µM) | 16 µg/mL (≈ 41.7 µM) |  | 
NC(=O)N/N=C/c1ccc([N+](=O)[O-])o1 [Nitrofurazone] |  | 8 µg/mL (≈ 40.4 µM) |  |  | 8 µg/mL (≈ 40.4 µM) | 16 µg/mL (≈ 80.8 µM) | 64 µg/mL (≈ 323 µM) | 128 µg/mL (≈ 646 µM) | 64 µg/mL (≈ 323 µM) | 8 µg/mL (≈ 40.4 µM) | 64 µg/mL (≈ 323 µM) | 8 to 16 µg/mL (≈ 40.4 to 80.8 µM) | 32 µg/mL (≈ 162 µM) |  |  |  | 8 to 16 µg/mL (≈ 40.4 to 80.8 µM) | 64 µg/mL (≈ 323 µM) | MIC ([9]; E. faecium ATCC 35667): >64 µg/mL
CO[C@H]1/C=C/O[C@@]2(C)Oc3c(C)c(O)c4c(O)c(c(/C=N/N5CCN(C)CC5)c(O)c4c3C2=O)NC(=O)/C(C)=C\C=C\[C@H](C)[C@H](O)[C@@H](C)[C@@H](O)[C@@H](C)[C@H](OC(C)=O)[C@@H]1C [Rifampicin] |  | 0.03 µg/mL (≈ 0.0365 µM) |  |  |  | 0.008 to 0.015 µg/mL (≈ 0.00972 to 0.0182 µM) | 8 µg/mL (≈ 9.72 µM) | 32 µg/mL (≈ 38.9 µM) |  | 0.004 to 0.008 µg/mL (≈ 0.00486 to 0.00972 µM) | 0.5 to 1 µg/mL (≈ 0.608 to 1.22 µM) | 8 µg/mL (≈ 9.72 µM) | 4 µg/mL (≈ 4.86 µM) |  |  |  | 0.008 to 0.015 µg/mL (≈ 0.00972 to 0.0182 µM) | 8 µg/mL (≈ 9.72 µM) | MIC [10]: > 128 µg/mL; MIC [28]: 0.06 µg/mL (≈ 0.0729 µM)
